Biological target: purified human recombinant GK (Homo sapiens (Human), UniProt P35557)
Experiment: Glucokinase activity assay (coupled enzymatic, G6PD/NADH absorbance at 340 nm)
Assay type: biochemical
Conditions: for EC50: EC50 of % change in S0.5 of glucokinase for glucose, sigmoidal fit, read-out: EC50 (with respect to % ΔS0.5); for Emax / % Emax (with respect to % ΔS0.5): Emax of % change in S0.5 of glucokinase for glucose, vehicle S0.5 = 0%, 0 mM glucose = 100%; for Emax: read-out: % Emax (with respect to % ΔS0.5)
Description: The glucokinase (GK) assay is a coupled enzymatic assay. GK catalyzes the first step of glycolysis, the conversion of glucose to glucose-6-phosphate (G6P) in the presence of ATP. G6P in turn is converted by glucose-6-phosphate dehydrogenase (G6PD) to 6-phosphogluconate, a process that requires NAD, resulting in NADH formation. Since the GK-catalyzed step is the rate-limiting step of this coupled enzymatic process, the rate of accumulation of 6-phosphogluconate and NADH is directly proportional to the rate of glucose phosphorylation by GK. The rate of the GK-catalyzed reaction can therefore be measured by monitoring the increase in NADH absorbance at 340 nm.
The assay is carried out according to the protocol outlined in Hariharan et al (1997), Diabetes 46: 11-16. Briefly, the test compounds are incubated in a reaction mix containing 25 mM HEPES (pH 7.2), 10 mM MgCl2, 100 mM KCl, 5 mM ATP, 2 mM DTT, 0.5 mM NAD, 1 U/mL Leuconostoc mesenteroides G6PD, 0.3 U/mL of purified human recombinant GK, and different concentrations of glucose. Enzymatic activity is calculated from the initial reaction velocity, measured from the change in NADH absorbance as a function of time.
Compounds described in formula (I), in concentration ranges from 1.0 nM to 500 μM, are tested in the purified human recombinant glucokinase assay described above.
A compound is considered to be a glucokinase activator if it, in its testable range of concentrations, yields a higher rate of glucose phosphorylation than in its absence at a particular glucose concentration, for example at 5 mM glucose.
Compounds of general formula (I) are tested in the in vitro GK enzymatic assay to monitor dose-dependent effect on glucokinase activation (in kinetic mode), as described above, at various glucose concentrations. The S0.5 of glucokinase for glucose at different concentration of each compound of interest is calculated from the following modified version of the Michaelis-Menten equation, V=Vmax [S]^n/(S0.5^n+[S]^n), where [S] is the glucose concentration and n is the Hill coefficient (taken as 1.7 to account for the sigoidal kinetics of glucokinase with respect to glucose). The S0.5 is plotted against the log of the compound concentration. The change in the S0.5 of glucokinase (ΔS0.5) for glucose is calculated by subtracting the S0.5 at each concentration of the compound from the S0.5 in the vehicle control. The ΔS0.5 is then normalized to a percent scale, where the S0.5 in the vehicle control is set to 0% and 0 mM glucose is set to 100%. The % ΔS0.5 is then plotted against the log of the compound concentration. The EC50 and Emax of % change in S0.5 is obtained from the sigoidal fit of the data. Detailed protocol has been described in our copending application no. 409/CHE/2007 which is incorporated herein by reference. Characterization data of some representative glucokinase activators of the present disclosure, which are illustrative but not limiting, are given in table I below.

purified human recombinant GK, sequence (P35557 whole entry): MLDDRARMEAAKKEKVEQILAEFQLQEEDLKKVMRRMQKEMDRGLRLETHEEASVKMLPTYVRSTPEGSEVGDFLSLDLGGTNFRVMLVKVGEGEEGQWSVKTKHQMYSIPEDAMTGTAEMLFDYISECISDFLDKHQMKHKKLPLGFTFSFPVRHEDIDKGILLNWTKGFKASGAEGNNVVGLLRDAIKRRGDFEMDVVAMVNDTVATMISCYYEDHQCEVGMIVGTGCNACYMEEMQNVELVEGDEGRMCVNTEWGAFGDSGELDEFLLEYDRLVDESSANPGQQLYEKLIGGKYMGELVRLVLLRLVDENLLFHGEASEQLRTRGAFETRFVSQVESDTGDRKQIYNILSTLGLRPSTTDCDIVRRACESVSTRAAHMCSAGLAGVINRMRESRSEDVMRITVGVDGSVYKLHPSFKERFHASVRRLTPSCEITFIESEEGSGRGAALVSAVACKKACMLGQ

`O=C(Nc1ncc(-n2cccn2)s1)C(Oc1ccc(F)cc1F)c1ccc(S(=O)(=O)C2CC2)cc1` (single isomer, unassigned; (+)) [Example G4A, (+)2-(4-cyclopropylsulfonylphenyl)-2-(2,4-difluorophenoxy)-N-(5-pyrazol-1-ylthiazol-2-yl)acetamide] gave an EC50 of 260 nM and an Emax of 91%.

Molecule `CC(C)(C(=O)O)c1ccc(Oc2cnc(NC(=O)C(OC3CCOCC3)c3ccc(S(=O)(=O)C4CC4)cc3)s2)cc1` (single isomer, unassigned; (+)) [Example G5A, (+)2-[4-[2-[[2-(4-cyclopropylsulfonylphenyl)-2-tetrahydropyran-4-yloxy-acetyl]amino]thiazol-5-yl]oxyphenyl]-2-methyl-propanoic acid] has an EC50 of 94 nM and an Emax of 91%.

For `Cc1ccc(Oc2cnc(NC(=O)C(O[C@@H]3CCOC3)c3ccc(S(=O)(=O)C4CC4)cc3)s2)cc1C(=O)O` (single isomer, unassigned; (+)) [Example G11A], the EC50 was 570 nM and the Emax was 92%.

With `O=C(O)c1cnn(-c2cnc(NC(=O)C(OC3CCOCC3)c3ccc(S(=O)(=O)C4CC4)cc3)s2)c1` (single isomer, unassigned; (+)) [Example G12A, (+)1-[2-[[2-(4-cyclopropylsulfonylphenyl)-2-tetrahydropyran-4-yloxy-acetyl]amino]thiazol-5-yl]pyrazole-4-carboxylic acid] the EC50 was 300 nM and the Emax was 90%.

`Cc1cc(Oc2cnc(NC(=O)C(O[C@@H]3CCOC3)c3ccc(S(=O)(=O)C4CC4)cc3)s2)ccc1C(=O)O` (single isomer, unassigned; (+)) [Example G14A] was tested, and the EC50 was 380 nM and the Emax was 99%.

`CCOC(=O)c1cccc(Oc2cnc(NC(=O)C(OC3CCOCC3)c3ccc(S(=O)(=O)C4CC4)cc3)s2)c1` (single isomer, unassigned; (+)) [Example G19A, (+)ethyl 3-[2-[[2-(4-cyclopropylsulfonylphenyl)-2-tetrahydropyran-4-yloxy-acetyl]amino]thiazol-5-yl]oxybenzoate] was tested, and the EC50 was 100 nM and the Emax was 95%.

`O=C(O)c1cncc(Oc2cnc(NC(=O)C(OC3CCOCC3)c3ccc(S(=O)(=O)C4CC4)cc3)s2)c1` (single isomer, unassigned; (+)) [Example G22A, (+)5-[2-[[2-(4-cyclopropylsulfonylphenyl)-2-tetrahydropyran-4-yloxy-acetyl]amino]thiazol-5-yl]oxypyridine-3-carboxylic acid] was tested, and the EC50 was 290 nM and the Emax was 95%.

With `Cc1cc(Oc2cnc(NC(=O)C(OC3CCOCC3)c3ccc(S(=O)(=O)C4CC4)cc3)s2)ccc1C(=O)O` (single isomer, unassigned; (-)) [Example G1B, (−)4-[2-[[2-(4-cyclopropylsulfonylphenyl)-2-tetrahydropyran-4-yloxy-acetyl]amino]thiazol-5-yl]oxy-2-methyl-benzoic acid] the EC50 was 330 nM and the “% Emax (with respect to % ΔS0.5)” value was 92%.

For `O=C(O)Cc1nc(NC(=O)C(OC2CCOCC2)c2ccc(S(=O)(=O)N3CCCCC3)cc2)sc1Cl` (single isomer, unassigned; (-)) [Example G3B, (−)2-[5-chloro-2-[[2-[4-(1-piperidylsulfonyl)phenyl]-2-tetrahydropyran-4-yloxy-acetyl]amino]thiazol-4-yl]acetic acid], the EC50 was 420 nM and the Emax was 94%.

In the case of `O=C(Nc1ncc(-n2cccn2)s1)C(Oc1ccc(F)cc1F)c1ccc(S(=O)(=O)C2CC2)cc1` (single isomer, unassigned; (-)) [Example G4B, (−)2-(4-cyclopropylsulfonylphenyl)-2-(2,4-difluorophenoxy)-N-(5-pyrazol-1-ylthiazol-2-yl)acetamide], the EC50 is reported as 640 nM and the “% Emax (with respect to % ΔS0.5)” value is reported as 79%.

Work on `O=C(Nc1nccs1)C(OC1CCOCC1)c1ccc(S(=O)(=O)C2CC2)cc1` (centres unmarked) [Example A-1, 2-(4-Cyclopropylsulfonylphenyl)-2-tetrahydropyran-4-yloxy-N-thiazol-2-yl-acetamide] yielded an EC50 of 1400 nM and an Emax of 89%.

For `O=C(Nc1ncc(F)s1)C(OC1CCOCC1)c1ccc(S(=O)(=O)N2CCOCC2)cc1` (centres unmarked) [Example A-11, N-(5-fluorothiazol-2-yl)-2-(4-morpholinosulfonylphenyl)-2-tetrahydropyran-4-yloxy-acetamide], the EC50 was 950 nM and the Emax was 85%.

With `COc1ccc2nc(NC(=O)C(OC3CCOCC3)c3ccc(S(=O)(=O)N4CCOCC4)cc3)sc2n1` (centres unmarked) [Example A-12, N-(5-methoxythiazolo[5,4-b]pyridin-2-yl)-2-(4-morpholinosulfonylphenyl)-2-tetrahydropyran-4-yloxy-acetamide] the EC50 was 660 nM and the Emax was 88%.

`CN1CCC(OC(C(=O)Nc2ncc(F)s2)c2ccc(S(=O)(=O)C3CC3)cc2)CC1` (centres unmarked) [Example A-32, 2-(4-Cyclopropylsulfonylphenyl)-N-(5-fluorothiazol-2-yl)-2-[(1-methyl-4-piperidyl)oxy]acetamide] was tested, and the EC50 was > 10000 nM.

With `CC(C)(C)OC(=O)c1ccc(NC(=O)C(Oc2ccc(F)cc2F)c2ccc(S(=O)(=O)N3CCOCC3)cc2)nc1` (centres unmarked) [Example A-58, tert-Butyl 6-[[2-(2,4-difluorophenoxy)-2-(4-morpholinosulfonylphenyl)acetyl]amino]pyridine-3-carboxylate] the EC50 was > 10000 nM.

`O=C(O)C1CCc2nc(NC(=O)C(OC3CCOCC3)c3ccc(S(=O)(=O)C4CC4)cc3)sc2C1` (centres unmarked) [Example B-4, 2-[[2-(4-cyclopropylsulfonylphenyl)-2-tetrahydropyran-4-yloxy-acetyl]amino]-4,5,6,7-tetrahydro-1,3-benzothiazole-6-carboxylic acid] showed an EC50 of 3700 nM and an Emax of 83%.

In the case of `Cc1cc(Oc2cnc(NC(=O)C(Oc3ccc(F)cc3F)c3ccc(S(=O)(=O)C4CC4)cc3)s2)ccc1C(=O)O` (centres unmarked) [Example B-9, 4-[2-[[2-(4-cyclopropylsulfonylphenyl)-2-(2,4-difluorophenoxy)acetyl]amino]thiazol-5-yl]oxy-2-methyl-benzoic acid], the EC50 is reported as 93 nM and the Emax is reported as 89%.

In the case of `O=C(O)Cc1nc(NC(=O)C(OC2CCOCC2)c2ccc(S(=O)(=O)N3CCCCC3)cc2)sc1Cl` (centres unmarked) [Example B-12, 2-[5-chloro-2-[[2-[4-(1-piperidylsulfonyl)phenyl]-2-tetrahydropyran-4-yloxy-acetyl]amino]thiazol-4-yl]acetic acid], the EC50 is reported as 1120 nM and the Emax is reported as 90%.

`O=C(O)c1ccc(Oc2cnc(NC(=O)C(OC3CCOCC3)c3ccc(S(=O)(=O)C4CC4)cc3)s2)cc1Cl` (centres unmarked) [Example B-20, 2-chloro-4-[2-[[2-(4-cyclopropylsulfonylphenyl)-2-tetrahydropyran-4-yloxy-acetyl]amino]thiazol-5-yl]oxy-benzoic acid] was tested, and the EC50 was 590 nM and the Emax was 94%.

With `O=C(O)c1cc(Oc2cnc(NC(=O)C(OC3CCOCC3)c3ccc(S(=O)(=O)C4CC4)cc3)s2)ccc1Cl` (centres unmarked) [Example B-23, 2-chloro-5-[2-[[2-(4-cyclopropylsulfonylphenyl)-2-tetrahydropyran-4-yloxy-acetyl]amino]thiazol-5-yl]oxy-benzoic acid] the EC50 was 480 nM and the Emax was 94%.

`O=C(O)c1cc(-c2ccc(Oc3cnc(NC(=O)C(OC4CCOCC4)c4ccc(S(=O)(=O)C5CC5)cc4)s3)cc2)no1` (centres unmarked) [Example B-26, 3-[4-[2-[[2-(4-cyclopropylsulfonylphenyl)-2-tetrahydropyran-4-yloxy-acetyl]amino]thiazol-5-yl]oxyphenyl]isoxazole-5-carboxylic acid] gave an EC50 of 220 nM and an Emax of 92%.

In the case of `O=C(O)c1cc(Oc2cnc(NC(=O)C(OC3CCOCC3)c3ccc(S(=O)(=O)C4CC4)cc3)s2)ccn1` (centres unmarked) [Example B-49, 4-[2-[[2-(4-cyclopropylsulfonylphenyl)-2-tetrahydropyran-4-yloxy-acetyl]amino]thiazol-5-yl]oxypyridine-2-carboxylic acid], the EC50 is reported as 570 nM and the Emax is reported as 92%.

`O=C(O)c1ccc(NC(=O)C(Oc2ccc(Cl)cc2)c2ccc(S(=O)(=O)C3CC3)cc2)nc1` (centres unmarked) [Example B-58, 6-[[2-(4-chlorophenoxy)-2-(4-cyclopropylsulfonylphenyl)acetyl]amino]pyridine-3-carboxylic acid] was tested, and the EC50 was 740 nM and the Emax was 89%.

Reference: patent US9340506B2, “Acetamide derivatives as glucokinase activators, their process and medicinal applications” (ADVINUS THERAPEUTICS LIMITED, priority 2007, dated 2016)
